Reference: PubChem BioAssay (NCI)
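Test compounds were applied to cells in 96-well plates for 48 hours at 5 doses. At the GI50, growth is halved. Definition used: TGI = concentration required for complete inhibition of growth.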

What was measured:
Experiment in all cases: NCI anticancer screen, dose series, 48 h
[1] = system: LOX IMVI melanoma
[2] = system: SNB-19 CNS
[3] = system: CAKI-1 renal
[4] = system: SF-295 CNS
[5] = system: SF-539 CNS
[6] = system: MDA-MB-435
[7] = system: HS 578T breast
[8] = system: SR leukemia
[9] = system: SW-620 colon
[10] = system: HOP-62 NSCLC
[11] = system: NCI/ADR-RES ovarian
[12] = system: EKVX NSCLC
[13] = system: SK-MEL-5 melanoma
[14] = system: HL-60(TB) leukemia
[15] = system: OVCAR-3 ovarian
[16] = system: HCC-2998 colon
[17] = system: COLO 205 colon
[18] = system: NCI-H226 lung
[19] = system: NCI-H23 lung
[20] = system: SK-MEL-28 melanoma
[21] = system: OVCAR-5 ovarian
[22] = system: HOP-92 NSCLC
[23] = system: SK-OV-3 ovarian
[24] = system: CCRF-CEM leukemia
[25] = system: A549 NSCLC
[26] = system: RPMI-8226 leukemia
[27] = system: SK-MEL-2 melanoma
[28] = system: TK-10 renal
[29] = system: MDA-MB-231 breast
[30] = system: KM12 colon
[31] = system: A498 renal
[32] = system: M14 melanoma
[33] = system: MCF7 breast
[34] = system: SN12C renal
[35] = system: UO-31 renal
[36] = system: OVCAR-8 ovarian
[37] = system: HCT-15 colon
[38] = system: HT29 colon
[39] = system: UACC-62 melanoma
[40] = system: NCI-H522 lung
[41] = system: U251 CNS
[42] = system: 786-0 renal
[43] = system: DU-145 prostate
[44] = system: K-562 leukemia
[45] = system: MOLT-4 leukemia
[46] = system: UACC-257 melanoma
[47] = system: NCI-H460 lung
[48] = system: PC-3 prostate
[49] = system: OVCAR-4 ovarian
[50] = system: BT-549 breast
[51] = system: MALME-3M melanoma
[52] = system: SF-268 CNS
[53] = system: T-47D breast
[54] = system: ACHN renal
[55] = system: HCT-116 colon
[56] = system: IGROV1 ovarian
[57] = system: SNB-75 CNS

Cc1cc(Nc2ccc3c(c2)OCO3)c2cc3c(cc2n1)OCO3
GI50 [1]: 1.85 µM
TGI [1]: 11.5 µM
GI50 [2]: 2.38 µM
TGI [2]: 20.9 µM
GI50 [3]: 2.55 µM
TGI [3]: 30.7 µM
GI50 [4]: 0.563 µM
TGI [4]: 8.85 µM
GI50 [5]: 2.12 µM
TGI [5]: 6.73 µM
GI50 [6]: 0.265 µM
TGI [6]: 1.37 µM
GI50 [7]: 1.08 µM
TGI [7]: 5.35 µM
GI50 [8]: 0.532 µM
TGI [8]: > 84.4 µM
GI50 [9]: 0.756 µM
TGI [9]: 15.4 µM
GI50 [10]: 3.84 µM
TGI [10]: 20.3 µM
GI50 [11]: 2.15 µM
TGI [11]: 18.5 µM
GI50 [12]: 1.64 µM
TGI [12]: 13.2 µM
GI50 [13]: 0.821 µM
TGI [13]: 14.1 µM
GI50 [14]: 0.745 µM
TGI [14]: > 19.9 µM
GI50 [15]: 0.701 µM
TGI [15]: 3.03 µM
GI50 [16]: 2.33 µM
TGI [16]: 6.47 µM
GI50 [17]: 1.31 µM
TGI [17]: 4.03 µM
GI50 [18]: 2.94 µM
TGI [18]: 16.4 µM
GI50 [19]: 3.93 µM
TGI [19]: 23.7 µM
GI50 [20]: 1.93 µM
TGI [20]: 14.1 µM
GI50 [21]: 4.24 µM
TGI [21]: 41.1 µM
GI50 [22]: 1.48 µM
TGI [22]: 9.07 µM
GI50 [23]: 3.22 µM
TGI [23]: 30.1 µM
GI50 [24]: 1.92 µM
TGI [24]: 10.2 µM
GI50 [25]: 1.37 µM
TGI [25]: 11.6 µM
GI50 [26]: 0.526 µM
TGI [26]: 3.6 µM
GI50 [27]: 4.54 µM
TGI [27]: 21.5 µM
GI50 [28]: 5.62 µM
TGI [28]: 32.5 µM
GI50 [29]: 2.58 µM
TGI [29]: 17 µM
GI50 [30]: 1.05 µM
TGI [30]: 14.4 µM
GI50 [31]: 0.812 µM
TGI [31]: 4.72 µM
GI50 [32]: 1.19 µM
TGI [32]: 6.99 µM
GI50 [33]: 0.376 µM
TGI [33]: 15 µM
GI50 [34]: 4.14 µM
TGI [34]: 31.3 µM
GI50 [35]: 1.63 µM
TGI [35]: 9.1 µM
GI50 [36]: 3.13 µM
TGI [36]: 15.5 µM
GI50 [37]: 0.9 µM
TGI [37]: 16.6 µM
GI50 [38]: 0.878 µM
TGI [38]: 18.8 µM
GI50 [39]: 2.08 µM
TGI [39]: 16.5 µM
GI50 [40]: 2.35 µM
TGI [40]: 10 µM
GI50 [41]: 2.8 µM
TGI [41]: 14.2 µM
GI50 [42]: 4.2 µM
TGI [42]: 17.8 µM
GI50 [43]: 2.91 µM
TGI [43]: 12.3 µM
GI50 [44]: 1.24 µM
TGI [44]: > 100 µM
GI50 [45]: 2.51 µM
TGI [45]: > 54.5 µM
GI50 [46]: 3.57 µM
TGI [46]: 23.4 µM
GI50 [47]: 2.3 µM
TGI [47]: 12.3 µM
GI50 [48]: 1.13 µM
TGI [48]: 11.5 µM
GI50 [49]: 5.2 µM
TGI [49]: 44.4 µM
GI50 [50]: 4.26 µM
TGI [50]: 26.2 µM
GI50 [51]: 2.08 µM
TGI [51]: 20.9 µM
GI50 [52]: 3.69 µM
TGI [52]: 19.3 µM
GI50 [53]: 4.69 µM
TGI [53]: 38.6 µM
GI50 [54]: 6.23 µM
TGI [54]: 26.6 µM
GI50 [55]: 1.42 µM
TGI [55]: 15.8 µM
GI50 [56]: 0.318 µM
TGI [56]: 3.8 µM
GI50 [57]: 0.766 µM
TGI [57]: 7.38 µM
